System: KCM cells
Test: KCM orthotopic pancreatic tumor model
Assay type: in vivo, mice
Source text: The subcutaneous CT26 colon cancer model and the orthotopic KCM pancreatic cancer model were used to assess the effects of a CCR4 inhibitor, Compound 1, in combination with anti-CTLA-4 antibody (BioXcell: anti-mouse CTLA-4 (Clone: 9H10), raised in Syrian Hamster, purified with protein G). CT26 cells were implanted into the flanks of 9 week female Balb/c mice. Mice were randomized into study groups based on the tumor sizes on day 6, and dosing of both Compound 1 and anti-CTLA-4 started on day 7. For the orthotopic pancreatic cancer model, KCM cells were implanted directly into the pancreas, and dosing of Compound 1 and anti-CTLA-4 also began on day 7. Compound 1 was dosed orally twice daily at 30 mg/kg, and anti-CTLA-4 was dosed IP on days 7, 11 and 15 at 100 μg/mouse.
As briefly described in Example 1, above, a KCM pancreatic cancer model was used to assess the effectiveness of a CCR4 inhibitor in combination with an anti-CTLA-4 antibody. The mice were broken into 4 groups (n=12 each group): isotype antibody+Vehicle; Isotype Antibody+Compound 1; anti-CTLA-4+Vehicle; anti-CTLA-4+Compound 1. The mice used were 7-8 week old C57BL/6 female mice. […]
After completion of the study, the tumor/pancreases weight for each group was measured. […]
Changes in suppressive immune cell populations were also measured at the completion of this study. […] Pancreas from sham-operated mice were processed and analyzed. […]

What does the source list for C[C@@H](Nc1cc(C2CCN([C@H]3CCCN(CCC(=O)O)C3)CC2)ccc1Cl)c1ccc(Cl)cc1Cl [Compound 1]?
Spleen weight: reduced; Tumor burden (tumor + pancreas weight) (Compound 1 bid, anti-CTLA-4 100 μg i.p.): significantly reduced tumor burden

From patent US12011439B2, “Combination therapy using C—C chemokine receptor 4 (CCR4) antagonists and one or more immune checkpoint inhibitors” (CHEMOCENTRYX, INC., priority 2018, dated 2024)
